Experimental data: patent publication US20230374096A1, “OBESITY TREATMENT AND PREVENTION METHODS” (Vault Bioventures, Inc., priority 2022, published 2023)

Assays:
Type in all cases: in vivo, human
[1] = Example 17: liraglutide and 15-hour fasting; details: weeks 1-4: 0.75/1.5/2.25/2.25 mg, without exercise or caloric restriction
Excerpt: Patients are subject to a combination HMT/HNT treatment protocol as described in Table 21 below. […] [table]

[2] = Example 16: liraglutide and One-Meal-A-Day; details: One-Meal-A-Day; weeks 1-4: 0.75/1.5/1.5/2.25 mg; without exercise or caloric restriction
Excerpt: Patients are subject to a combination HMT/HNT treatment protocol as described in Table 20 below. […] [table]

[3] = Example 18: liraglutide and 18-hour fasting; details: weeks 1-4: 0.75/1.5/1.5/2.25 mg, without exercise or caloric restriction
Excerpt: Patients are subject to a combination HMT/HNT treatment protocol as described in Table 22 below. […] [table]

[4] = Example 14: dulaglutide and 15-hour fasting; details: weeks 1-4: 0.2/0.375/0.375/0.6 mg, without exercise or caloric restriction
Excerpt: Patients are subject to a combination HMT/HNT treatment protocol as described in Table 18 below. […] [table]

[5] = Example 13: dulaglutide and One-Meal-A-Day; details: One-Meal-A-Day; weeks 1-4: 0.2/0.375/0.375/0.6 mg; without exercise or caloric restriction
Excerpt: Patients are subject to a combination HMT/HNT treatment protocol as described in Table 17 below. […] [table]

[6] = Example 15: dulaglutide and 18-hour fasting; details: weeks 1-4: 0.2/0.375/0.375/0.6 mg, without exercise or caloric restriction
Excerpt: Patients are subject to a combination HMT/HNT treatment protocol as described in Table 19 below. […] [table]

[7] = Example 1: clinical study combining semaglutide (injection) and fasting (HMT/HNT), Patient 1
Excerpt: Patient 1 was subject to a combination HMT/HNT treatment protocol as described below.

[8] = Example 2: semaglutide (injection) and 15-hour fasting; details: weeks 1-4: .25/.50/.50/1 mg, without exercise or caloric restriction
Excerpt: Patients are subject to a combination HMT/HNT treatment protocol as described in Table 6 below. […] [table]

[9] = Example 6: semaglutide (oral) and 18-hour fasting; details: weeks 1-4: 1/2/3.5/5 mg, without exercise or caloric restriction
Excerpt: Patients are subject to a combination HMT/HNT treatment protocol as described in Table 10 below. […] [table]

[10] = Example 5: semaglutide (oral) and 15-hour fasting; details: weeks 1-4: 1/2/3.5/5 mg, without exercise or caloric restriction
Excerpt: Patients are subject to a combination HMT/HNT treatment protocol as described in Table 9 below. […] [table]

[11] = Example 4: semaglutide (oral) and One-Meal-A-Day; details: One-Meal-A-Day; weeks 1-4: 1/2/3.5/5 mg; without exercise or caloric restriction
Excerpt: Patients are subject to a combination HMT/HNT treatment protocol as described in Table 8 below. […] [table]

[12] = Example 3: semaglutide (oral) and 18-hour fasting; details: weeks 1-4: .25/.50/.50/1 mg, without exercise or caloric restriction
Excerpt: Patients are subject to a combination HMT/HNT treatment protocol as described in Table 7 below. […] [table]

CCCCCCCCCCCCCCCC(=O)N[C@@H](CCC(=O)NCCCC[C@H](NC(=O)[C@H](C)NC(=O)[C@H](C)NC(=O)[C@H](CCC(N)=O)NC(=O)CNC(=O)[C@H](CCC(=O)O)NC(=O)[C@H](CC(C)C)NC(=O)[C@H](Cc1ccc(O)cc1)NC(=O)[C@H](CO)NC(=O)[C@H](CO)NC(=O)[C@@H](NC(=O)[C@H](CC(=O)O)NC(=O)[C@H](CO)NC(=O)[C@@H](NC(=O)[C@H](Cc1ccccc1)NC(=O)[C@@H](NC(=O)CNC(=O)[C@H](CCC(=O)O)NC(=O)[C@H](C)NC(=O)[C@@H](N)Cc1cnc[nH]1)[C@@H](C)O)[C@@H](C)O)C(C)C)C(=O)N[C@@H](CCC(=O)O)C(=O)N[C@@H](Cc1ccccc1)C(=O)N[C@H](C(=O)N[C@@H](C)C(=O)N[C@@H](Cc1c[nH]c2ccccc12)C(=O)N[C@@H](CC(C)C)C(=O)N[C@H](C(=O)N[C@@H](CCCNC(=N)N)C(=O)NCC(=O)N[C@@H](CCCNC(=N)N)C(=O)NCC(=O)O)C(C)C)[C@@H](C)CC)C(=O)O [Liraglutide]
Therapeutic effects (e.g. weight loss) [1]: Desirable therapeutics effects (e.g. weigh loss) are achieved | Therapeutic effects (e.g. weight loss) [2]: Desirable therapeutics effects (e.g. weigh loss) are achieved | Therapeutic effects (e.g. weight loss) [3]: Desirable therapeutics effects (e.g. weigh loss) are achieved

Dulaglutide
Therapeutic effects (e.g. weight loss) [4]: Desirable therapeutics effects (e.g. weigh loss) are achieved | Therapeutic effects (e.g. weight loss) [5]: Desirable therapeutics effects (e.g. weigh loss) are achieved | Therapeutic effects (e.g. weight loss) [6]: Desirable therapeutics effects (e.g. weigh loss) are achieved

Semaglutide
Weight lost ([7]; in 30 days, combination HMT/HNT): 30 pounds | Bodyweight reduction ([7]; starting weight 282 lbs, 30 days, weeks 1-4: .25/.50/.50/1 mg, One-Meal-A-Day): −30 lbs | Therapeutic effects (e.g. weight loss) [8]: Desirable therapeutics effects (e.g. weigh loss) are achieved

Semaglutide [Semaglutide (oral)]
Therapeutic effects (e.g. weight loss) [9]: Desirable therapeutics effects (e.g. weigh loss) are achieved | Therapeutic effects (e.g. weight loss) [10]: Desirable therapeutics effects (e.g. weigh loss) are achieved | Therapeutic effects (e.g. weight loss) [11]: Desirable therapeutics effects (e.g. weigh loss) are achieved | Therapeutic effects (e.g. weight loss) [12]: Desirable therapeutics effects (e.g. weigh loss) are achieved
